Results published in USRE45173E1, “Inhibitors of CYP 17” (Novartis AG, priority 2009, dated 2014).

Assays:
[1] = target: rat CYP17 lyase (Rattus norvegicus (Rat), UniProt P11715); assay: rat CYP 17 Lyase model, rat testes microsomes as the source; format: biochemical; details: for inhibition at 0.1 µM: 100 nM compound, read-out: rCYP17 Lyase % Inh @ 100 nM; for IC50: rat testes microsomes, substrate 0.5 μM, read-out: Lyase IC 50 nM Human/Rat (Rat)
Procedure: For routine screening, the assay was set up with 16 μg of enzyme in 50 μL reaction volume. 17α-hydroxy pregnenolone [21-3H] was added to a final concentration of 0.25 μM. NADPH is used at a final concentration of 4.2 mM. Total reaction volume was made up to 50 μL with 50 mM Phosphate buffer pH 7.5. The reaction mixture was incubated at room temperature for 90 minutes with gentle shaking. The reaction was stopped by the addition of 100 μL of buffer. 500 μL of 5% freshly prepared activated charcoal was added to the solution and mixed well by vortexing. The samples were centrifuged at 17568×g for 5 minutes. (14000 rpm). The supernatant was carefully transferred to fresh tube and 1.3 mL of scintillation fluid was added, mixed by vortexing.
The radioactivity was measured in a 1450 MicroBeta TriLux™ scintillation counter from Wallac-Perkin Elmer®, USA. The measurements were carried out in 2.0 mL Eppendorforf™ tubes. Each tube was counted for 1 minute. The amount of tritiated acetic acid released is proportional to the lyase activity. Percent lyase activity in presence of inhibitor was calculated using the formula given below.
[formula] • Sample: Enzyme reaction in presence of inhibitor. • Positive control: Enzyme reaction without inhibitor but containing DMSO at 1% final concentration. • Blank-Contains all reagents except enzyme. % Inhibition=100%−% Lyase activity
For IC50 determination, the % inhibition was plotted as a function of inhibitor concentration. The data was fitted to sigmoidal equation using Graphpad Prism® software IV to generate IC50 values.
For the rat CYP 17 Lyase Model:
The same procedure described above was used but using rat testes microsomes as the source and with a substrate concentration of 0.5 μM.

[2] = target: recombinant human CYP17 enzyme (Homo sapiens (Human), UniProt P05093); assay: Cytochrome P450, 17-20 lyase (CYP17-lyase) assay, tritiated acetic acid release from 17-α-hydroxy pregnenolone [21-3H]; format: biochemical; details: human CYP17, substrate 0.25 μM; read-out: Lyase IC 50 nM Human/Rat (Human)
In short: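 Membranes of cells expressing human CYP17 incubated 90 min at room temperature with [21-3H]17α-hydroxypregnenolone and 4.2 mM NADPH in 50 mM phosphate pH 7.5. Released tritiated acetic acid separated from steroids by charcoal and counted by scintillation; IC50 from sigmoidal fit of % inhibition.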

rat CYP17 lyase, sequence (P11715 whole entry): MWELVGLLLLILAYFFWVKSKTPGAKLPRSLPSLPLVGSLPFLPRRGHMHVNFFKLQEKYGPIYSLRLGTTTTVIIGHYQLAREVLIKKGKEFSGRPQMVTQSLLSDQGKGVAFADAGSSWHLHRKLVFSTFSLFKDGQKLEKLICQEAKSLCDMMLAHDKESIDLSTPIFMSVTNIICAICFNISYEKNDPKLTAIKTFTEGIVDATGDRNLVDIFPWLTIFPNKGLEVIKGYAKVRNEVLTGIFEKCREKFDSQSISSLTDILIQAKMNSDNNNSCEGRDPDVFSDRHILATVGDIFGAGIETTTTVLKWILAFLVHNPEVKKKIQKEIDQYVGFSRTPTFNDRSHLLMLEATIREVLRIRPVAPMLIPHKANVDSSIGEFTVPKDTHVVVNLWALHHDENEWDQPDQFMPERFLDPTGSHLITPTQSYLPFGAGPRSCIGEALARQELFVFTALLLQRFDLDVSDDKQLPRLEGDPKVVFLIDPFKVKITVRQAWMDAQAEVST
recombinant human CYP17 enzyme, sequence (P05093 whole entry): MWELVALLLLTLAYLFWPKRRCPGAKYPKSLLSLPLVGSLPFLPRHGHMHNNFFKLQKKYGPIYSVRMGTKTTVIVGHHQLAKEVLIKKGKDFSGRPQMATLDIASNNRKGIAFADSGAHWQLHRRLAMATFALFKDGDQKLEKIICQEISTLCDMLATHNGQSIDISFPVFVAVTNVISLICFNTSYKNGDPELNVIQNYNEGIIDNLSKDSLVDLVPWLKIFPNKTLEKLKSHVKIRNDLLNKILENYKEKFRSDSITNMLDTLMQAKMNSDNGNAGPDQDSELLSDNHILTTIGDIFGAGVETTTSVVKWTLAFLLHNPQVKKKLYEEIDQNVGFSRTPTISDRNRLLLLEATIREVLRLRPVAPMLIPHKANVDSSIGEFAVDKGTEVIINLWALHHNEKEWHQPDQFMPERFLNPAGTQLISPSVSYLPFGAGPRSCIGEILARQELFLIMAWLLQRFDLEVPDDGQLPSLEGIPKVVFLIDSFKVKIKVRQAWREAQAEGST

inhibition at 0.1 µM [1] [%] | IC50 [1] [nM] | IC50 [2] [nM] | Structure (SMILES)
100 | – | 15 | Cc1ccncc1N1CCN(c2cc3ccccc3s2)C1=O [Example 26A, 1-Benzo[b]thiophen-2-yl-3-(4-methyl-pyridin-3-yl)-imidazolidin-2-one]
98 | – | 72 | Cc1ccncc1N1CCN(c2cnc3ccccc3c2)C1=O [Example 24A, 1-(4-Methyl-pyridin-3-yl)-3-quinolin-3-yl-imidazolidin-2-one]
57 | – | – | O=C1N(c2cncc(Cl)c2)CCN1c1ccc2ccccc2c1 [Example 80A]
82 | – | – | O=C1N(c2cncc(F)c2)CCN1c1ccc2ccccc2c1 [Example 81A, 1-(5-Fluoro-pyridin-3-yl)-3-naphthalen-2-yl-imidazolidin-2-one]
74 | – | 108 | Cc1ccncc1N1CCN(c2ccsc2)C1=O [Example 31A, 1-(4-Methyl-pyridin-3-yl)-3-thiophen-3-yl-imidazolidin-2-one]
97 | 5 | 96 | Cc1ccncc1N1CCN(c2ccc3ncccc3c2)C1=O [Example 52A, 1-(4-Methyl-pyridin-3-yl)-3-quinolin-6-yl-imidazolidin-2-one]
101 | – | 24 | Cc1ccncc1N1CCN(c2ccc3sccc3c2)C1=O [Example 27A, 1-Benzo[b]thiophen-5-yl-3-(4-methyl-pyridin-3-yl)-imidazolidin-2-one]
– | 7 | 9 | Cc1cccc(N2CCN(c3cnccc3C)C2=O)c1 [Example 55A, 1-(4-Methyl-pyridin-3-yl)-3-m-tolyl-imidazolidin-2-one]
3.6 | – | – | O=C1N(c2cncc(C(F)(F)F)c2)CCN1c1ccc2ccccc2c1 [Example 79A, 1-Naphthalen-2-yl-3-(5-trifluoromethyl-pyridin-3-yl)-imidazolidin-2-one]
98 | – | 3 | Cc1ccncc1N1CCN(c2ccc3occ(C)c3c2)C1=O [Example 29A, 1-(3-Methyl-benzofuran-5-yl)-3-(4-methyl-pyridin-3-yl)-imidazolidin-2-one]
– | 3 | 10 | Cc1ccncc1N1CCN(c2ccc(Cl)s2)C1=O [Example 41A, 1-(5-Chloro-thiophen-2-yl)-3-(4-methyl-pyridin-3-yl)-imidazolidin-2-one]
73 | – | – | COc1cncc(N2CCN(c3cnccc3C)C2=O)c1 [Example 32A, 1-(5-Methoxy-pyridin-3-yl)-3-(4-methyl-pyridin-3-yl)-imidazolidin-2-one]
76 | – | – | Cc1ccncc1N1CCN(c2ccc(F)nc2)C1=O [Example 30A, 1-(6-Fluoro-pyridin-3-yl)-3-(4-methyl-pyridin-3-yl)-imidazolidin-2-one]
69 | 56 | – | CCn1c(=O)cc(C)c2cc(N3CCN(c4cnccc4C)C3=O)ccc21 [Example 20A, 1-Ethyl-4-methyl-6-[3-(4-methyl-pyridin-3-yl)-2-oxo-imidazolidin-1-yl]-1-1H-quinolin-2-one]
98 | 5 | – | Cc1ccncc1N1CCN(c2ccc3nc(Cl)cc(C)c3c2)C1=O [Example 21A, 1-(2-Chloro-4-methyl-quinolin-6-yl)-3-(4-methyl-pyridin-3-yl)-imidazolidin-2-one]
– | 5 | 7.5 | Cc1ccncc1N1CCN(c2ccc3c(C)n[nH]c3c2)C1=O [Example 102A, 1-(3-Methyl-1H-indazol-6-yl)-3-(4-methyl-pyridin-3-yl)-imidazolidin-2-one]
85 | 20 | – | Cc1ccncc1N1CCN(c2ccc3ccccc3n2)C1=O [Example 23A, 1-(4-Methyl-pyridin-3-yl)-3-quinolin-2-yl-imidazolidin-2-one]
89 | – | – | COc1ccc2cc(N3CCN(c4cnccc4C)C3=O)ccc2c1 [Example 25A, 1-(6-Methoxy-naphthalen-2-yl)-3-(4-methyl-pyridin-3-yl)-imidazolidin-2-one]
85 | 24 | – | Cc1ccncc1N1CCN(c2ccc3[nH]c(=O)cc(C)c3c2)C1=O [Example 22A, 4-Methyl-6-[3-(4-methyl-pyridin-3-yl)-2-oxo-imidazolodin-1yl]1H-quinolin-2-one]
– | – | 13.3 | Cc1c(Cl)cncc1N1CCN(c2ccc3ncsc3c2)C1=O [Example 151A, 1-Benzothiazol-6-yl-3-(5-chloro-4-methyl-pyridin-3-yl)-imidazolidin-2-one]
8 | – | – | CC(O)c1ccncc1N1CCN(c2ccc3ncsc3c2)C1=O (centres unmarked) [Example 195A, 1-Benzothiazol-6-yl-3-[4-(1-hydroxyethyl)-pyridin-3-yl]-imidazolidin-2-one]
– | – | 383 | Cc1ccncc1N1CCN(c2cnc3[nH]cnc3c2)C1=O [Example 122A, 1-(3H-Imidazo[4,5-b]pyridin-6-yl)-3-(4-methyl-pyridin-3-yl)-imidazolidin-2-one Trifluoroacetic Acid]

The remaining lines, values behind:

Structure (SMILES) | inhibition at 0.1 µM [1] [%] | IC50 [1] [nM] | IC50 [2] [nM]
O=C1N(c2cccnc2)CCN1c1ccc2ccccc2c1 [Example 1A, 1-Naphthalen-2-yl-3-pyridin-3-yl-imidazolidin-2-one] | 84 | 35 | 34
Cc1ccncc1N1CCN(c2ccc3ccccc3c2)C1=O [Example 14A, 1-(4-Methyl-pyridin-3-yl)-3-naphthalen-2-yl-imidazolidin-2-one] | 102 | 2 | 17
O=C1N(c2cccnc2)CCCN1c1ccc2sccc2c1 [Example 13A, 1-Benzo[b]thiophen-5-yl-3-pyridin-3-yl-tetrahydro-pyrimidin-2-one] | 9 | – | –
CCN1C(=O)CCc2cc(N3CCN(c4cnccc4C)C3=O)ccc21 [Example 17A, 1-Ethyl-6-[3-(4-methyl-pyridin-3-yl)-2-oxo-imidazolidin-1-yl]-3,4-dihydro-1H-quinolin-2-one] | 83 | 21 | –
Cc1cc(Cl)nc2ccc(N3CCN(c4cccnc4)C3=O)cc12 [Example 11A, 1-(2-Chloro-4-methyl-quinolin-6-yl)-3-pyridin-3-yl-imidazolidin-2-one] | 59 | 97 | –
CCn1ccc2cc(N3CCN(c4cccnc4)C3=O)ccc21 [Example 2A, 1-(1-Ethyl-1H-indol-5-yl)-3-pyridin-3-yl-imidazolidin-2-one] | 23 | – | –
Cc1ccncc1N1CCN(c2ccc3ncsc3c2)C1=O [Example 16A, 1-Benzothiazol-6-yl-3-(4-methyl-pyridin-3-yl)-imidazolidin-2-one] | 94 | 5 | 6
CCN1C(=O)CCc2cc(N3CCN(c4cccnc4)C3=O)ccc21 [Example 5A, 1-Ethyl-6-(2-oxo-3-pyridin-3-yl-imidazolidin-1-yl)-3,4-dihydro-1H-quinolin-2-one] | 51 | – | –
O=C1N(c2cccnc2)CCCN1c1ccc2ccccc2c1 [Example 10A, 1-Naphthalen-2-yl-3-pyridin-3-yl-tetrahydro-pyrimidin-2-one] | 11 | – | –
O=C1N(c2cccnc2)CCN1c1ccc2ncsc2c1 [Example 4A, 1-Benzothiazol-6-yl-3-pyridin-3-yl-imidazolidin-2-one] | 59 | – | 77
COc1ccc2cc(N3CCN(c4cccnc4)C3=O)ccc2c1 [Example 3A, 1-(6-Methoxy-naphthalen-2-yl)-3-pyridin-3-O-imidazolidin-2-one] | 31 | – | –
O=C1N(c2cccnc2)CCN1c1ccc2sccc2c1 [Example 7A, 1-Benzo[b]thiophen-5-yl-3-pyridin-3-yl-imidazolidin-2-one] | 87 | 16 | –
Cc1ccncc1N1CCN(c2ccc(-c3ccccc3)cc2)C1=O [Example 19A, 1-Biphenyl-4-O-3-(4-methyl-pyridin-3-yl)-imidazolidin-2-one] | 91 | 11 | –
O=C1N(c2cccnc2)CCN1c1ccc2ncccc2c1 [Example 8A, 1-Pyridin-3-yl-3-quinolin-6-yl-imidazolidin-2-one] | 48 | – | –
O=C1N(c2cccnc2)CCN1c1ccc2c(c1)CC/C2=N\O [Example 12A] | 17 | – | –
O=C1N(c2cccnc2)CCN1c1ccc2scnc2c1 [Example 9A, 1-Benzothiazol-5-yl-3-pyridin-3-yl-imidazolidin-2-one] | 18 | – | –
Cc1c(N2CCN(c3cccnc3)C2=O)sc2ccc(F)cc12 [Example 6A, 1-(5-Fluoro-3-methyl-benzo[b]thiophen-2-yl)-3-pyridin-3-yl-imidazolidin-2-one] | 51 | 157 | –
